Laboratory results taken from patent publication US11578055B2, “Triazacyclododecansulfonamide (“TCD”)-based protein secretion inhibitors” (KEZAR LIFE SCIENCES, priority 2018, dated 2023).

Columns and labels:
[1] = system: full length IL-2 (amino acids 1-153) fused to Gaussia Luciferase; test: Dox Induced IL2-FL-Gluc Assay; format: cell-based; conditions: 24 hr, Dox inducible, 293FRT/TO cells; read-out: 24 hr Dox Inducible IL2FLGluc 293FRT/TO: Mean IC50
How it was run: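 Flp-In 293 T-REx stable line expressing full-length IL-2 (aa 1-153) with C-terminal Gaussia luciferase fusion under doxycycline-inducible control. Cells plated the day before; compound dilutions added in DMSO/media containing doxycycline, incubated at 37° C, 5% CO2.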

[2] = In Vitro Microsome Stability Assay (rat); format: in vitro ADME; conditions: rat liver microsomes, 30 min w/ NADPH
How it was run: (§1)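 The value reported is the percentage of parent left after 30 min, calculated from analyte/IS peak-area ratios relative to time zero by LC-MS/MS. Incubations ran at 37° C in 0.1 M potassium phosphate with NADPH and microsomes (stock 20 mg/mL), with compound added from a 0.25 mM DMSO stock. Acetonitrile containing IS stopped the reactions.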

[3] = system: multiple myeloma cell line U266B1; test: U266 Cell Viability Assay; format: cell-based, human; conditions: Homo sapiens, U-266; 48 hr, U266, Celltiter-Glo
How it was run: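 U266B1 myeloma cells in RPMI 1640 with 10% FBS were treated with compound dilutions for 48 h at 37° C, 5% CO2. Viability was read as CellTiter-Glo luminescence. Data for structures drawn without stereochemistry refer to stereoisomer mixtures.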

[4] = system: PD1 signal sequence plus 10 amino acids fused to Gaussia Luciferase (PD1-ss+10aa/Gaussia Luciferase); test: Dox Induced PD1-ss-Gluc Assay; format: cell-based; conditions: 24 hr, Dox inducible, 293FRT/TO cells; read-out: 24 hr Dox Inducible PD1ssGluc 293FRT/TO: Mean IC50
How it was run: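 Stable Flp-In 293 T-REx line expressing the fusion under tetracycline-inducible control, plated the day before assay. Compound dilutions added with doxycycline and incubated at 37 °C, 5% CO2; unspecified stereocentres mean data refer to stereoisomer mixtures.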

[5] = system: full length TNFα (amino acids 1-233) fused to Gaussia Luciferase; test: Dox Induced TNFα-FL-Gluc Assay; format: cell-based; conditions: 24 hr, Dox inducible, 293FRT/TO cells; read-out: 24 hr Dox Inducible TNFaFLGluc 293FRT/TO: Mean IC50
How it was run: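 Stable Flp-In 293 T-REx line expressing doxycycline-inducible full-length TNFα fused to Gaussia luciferase; cells plated the day before, then treated with compound dilutions in doxycycline-containing medium at 37° C, 5% CO2. Unspecified stereocentres mean stereoisomer mixtures were tested.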

[6] = In Vitro Microsome Stability Assay (human); format: in vitro ADME; conditions: human liver microsomes, 30 min w/ NADPH
How it was run: as §1

[7] = In Vitro Microsome Stability Assay (monkey); format: in vitro ADME; conditions: monkey liver microsomes, 30 min w/ NADPH
How it was run: as §1

[8] = In Vitro Microsome Stability Assay (mouse); format: in vitro ADME; conditions: mouse liver microsomes, 30 min w/ NADPH
How it was run: as §1

[9] = system: multiple myeloma cell line NCl-H929; test: H929 Cell Viability Assay; format: cell-based, human; conditions: Homo sapiens, NCI-H929, 48 h, H929, Celltiter-Glo
How it was run: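 NCI-H929 myeloma cells in RPMI 1640 with 10% FBS were treated with compound dilutions for 48 h at 37 °C, and viability was then read by CellTiter-Glo luminescence. Compounds drawn without stereochemistry were tested as stereoisomer mixtures.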

SMILES | IC50 [1] [nM] | Liver Microsome Stability-% Left after 30 min w/ NADPH (%) Rat [2] [%] | EC50 [3] [nM] | IC50 [4] [nM] | IC50 [5] [nM] | Liver Microsome Stability-% Left after 30 min w/ NADPH (%) Human [6] [%] | Liver Microsome Stability-% Left after 30 min w/ NADPH (%) Monkey [7] [%] | Liver Microsome Stability-% Left after 30 min w/ NADPH (%) Mouse [8] [%] | EC50 [9] [nM]
C[C@H]1CN(S(=O)(=O)c2ccc(N(C)C)cc2)CCCN(CC2CC(F)(F)C2)CCCN(S(=O)(=O)N2CCc3cc(Cl)ccc3C2)C1 [A169, 4-{[(3S)-5-[(6-chloro-1,2,3,4-tetrahydroisoquinolin-2-yl)sulfonyl]-9-[(3,3-difluorocyclobutyl)methyl]-3-methyl-1,5,9-triazacyclododecan-1-yl]sulfonyl}-N,N-dimethylaniline] | 192 | 13.1 | > 25000 | 81.5 | 1050 | 34.7 | 4.23 | 22.5 | 3270
CC(C)CCN1CCCN(S(=O)(=O)c2ccc(N(C)C)cc2)C[C@H](C)CN(S(=O)(=O)N2CCc3cc(Cl)ccc3C2)CCC1 [A123, 4-{[(3S)-5-[(6-chloro-1,2,3,4-tetrahydroisoquinolin-2-yl)sulfonyl]-3-methyl-9-(3-methylbutyl)-1,5,9-triazacyclododecan-1-yl]sulfonyl}-N,N-dimethylaniline] | 45.9 | 7.41 | > 25000 | 14 | 425 | 5.02 | 3.47 | 6.13 | 835
Cc1cccc(CN2CCCN(S(=O)(=O)c3ccc(N(C)C)cc3)C[C@H](C)CN(S(=O)(=O)N3CCc4cc(Cl)ccc4C3)CCC2)c1 [A156, 4-{[(3S)-5-[(6-chloro-1,2,3,4-tetrahydroisoquinolin-2-yl)sulfonyl]-3-methyl-9-[(3-methylphenyl)methyl]-1,5,9-triazacyclododecan-1-yl]sulfonyl}-N,N-dimethylaniline] | 207 | 82.1 | > 25000 | 92.5 | 1830 | 81.3 | 80.6 | 75.6 | 3710
Cc1cccc2c1CCN(S(=O)(=O)N1CCCN(CC3CCCCC3)CCCN(S(=O)(=O)c3ccc(N(C)C)cc3)C[C@H](C)C1)C2 [A166, 4-{[(3S)-9-(cyclohexylmethyl)-3-methyl-5-[(5-methyl-1,2,3,4-tetrahydroisoquinolin-2-yl)sulfonyl]-1,5,9-triazacyclododecan-1-yl]sulfonyl}-N,N-dimethylaniline] | 30.2 | 31.3 | > 25000 | 16.7 | 278 | 14.0 | 18.7 | 26.4 | 548

Further compounds by falling IC50 [1], results first:

IC50 [1] [nM] | Liver Microsome Stability-% Left after 30 min w/ NADPH (%) Rat [2] [%] | EC50 [3] [nM] | IC50 [4] [nM] | IC50 [5] [nM] | Liver Microsome Stability-% Left after 30 min w/ NADPH (%) Human [6] [%] | Liver Microsome Stability-% Left after 30 min w/ NADPH (%) Monkey [7] [%] | Liver Microsome Stability-% Left after 30 min w/ NADPH (%) Mouse [8] [%] | EC50 [9] [nM] | SMILES
974 | 57.9 | > 25000 | 455 | > 25000 | 64.8 | 40.9 | 69.0 | > 25000 | C[C@@H]1CN(CC2CCCCC2)C[C@@H](C)CN(S(=O)(=O)N2CCc3cc(Cl)ccc3C2)C[C@@H](C)CN(S(=O)(=O)c2ccc(N(C)C)cc2)C1 [A164]
564 | 25.4 | > 25000 | 220 | 3430 | 30.2 | 18.8 | 20.8 | > 25000 | C[C@H]1CN(S(=O)(=O)c2ccc(N(C)C)cc2)CCCN(CC2CCCCC2)CCCN(S(=O)(=O)N2CC(c3ccccc3)C2)C1 [A101, 4-{[(3S)-9-(cyclohexylmethyl)-3-methyl-5-[(3-phenylazetidin-1-yl)sulfonyl]-1,5,9-triazacyclododecan-1-yl]sulfonyl}-N,N-dimethylaniline]
453 | 51.1 | > 25000 | 153 | 10700 | 71.8 | 46.1 | 61.3 | > 25000 | C[C@H]1CN(CC2CCCCC2)C[C@H](C)CN(S(=O)(=O)N2CCc3cc(Cl)ccc3C2)C[C@@H](C)CN(S(=O)(=O)c2ccc(N(C)C)cc2)C1 [A160, 4-{[(3S,7S,11S)-5-[(6-chloro-1,2,3,4-tetrahydroisoquinolin-2-yl]sulfonyl]-9-(cyclohexylmethyl)-3,7,11-trimethyl-1,5,9-triazacyclododecan-1-yl]sulfonyl}-N,N-dimethylaniline]
201 | 69.6 | > 25000 | 101 | 6260 | 70.5 | 60.3 | 62.5 | > 25000 | Cc1cc(F)ccc1N1CCN(S(=O)(=O)N2CCCN(CC3CCCCC3)CCCN(S(=O)(=O)c3ccc(N(C)C)cc3)C[C@H](C)C2)[C@@H](C)C1 [A162, 4-{[(3S)-9-(cyclohexylmethyl)-5-{[(2 S)-4-(4-fluoro-2-methylphenyl)-2-methylpiperazin-1-yl]sulfonyl}-3-methyl-1,5,9-triazacyclododecan-1-yl]sulfonyl}-N,N-dimethylaniline]
134 | 10.8 | > 25000 | 56.1 | 798 | 7.2 | 1.37 | 3.65 | 1780 | CC1c2ccccc2CCN1S(=O)(=O)N1CCCN(CC2CCCCC2)CCCN(S(=O)(=O)c2ccc(N(C)C)cc2)C[C@H](C)C1 (stereo partly drawn) [A170, 4-{[(3S)-9-(cyclohexylmethyl)-3-methyl-5-[(1-methyl-1,2,3,4-tetrahydroisoquinolin-2-yl]sulfonyl]-1,5,9-triazacyclododecan-1-yl]sulfonyl}-N,N-dimethylaniline]
122 | 22.0 | > 25000 | 38.7 | 984 | 23.3 | 27.9 | 17.1 | 1480 | C[C@H]1CN(S(=O)(=O)c2ccc(N(C)C)cc2)CCCN(CC2CCCCC2)CCCN(S(=O)(=O)N2CCc3c(Cl)cccc3C2)C1 [A181, 4-{[(3S)-5-[(5-chloro-1,2,3,4-tetrahydroisoquinolin-2-yl)sulfonyl]-9-(cyclohexylmethyl)-3-methyl-1,5,9-triazacyclododecan-1-yl]sulfonyl}-N,N-dimethylaniline]
